Publication PMC10099813, “Stafiba: A STAT5‐Selective Small‐Molecule Inhibitor” (Chembiochem, 2022)

Experiments:
[1] = molecular target: T1, STAT4 (Homo sapiens, UniProt Q14765); assay: Competitive fluorescence polarization (FP) binding assay, STAT4; settings: for IC50: 2 % DMSO for 5, 10 % DMSO for 10; for Ki: Ki calculated from IC50, 2 % DMSO for 5, 10 % DMSO for 10
T1 sequence (Q14765 1-748): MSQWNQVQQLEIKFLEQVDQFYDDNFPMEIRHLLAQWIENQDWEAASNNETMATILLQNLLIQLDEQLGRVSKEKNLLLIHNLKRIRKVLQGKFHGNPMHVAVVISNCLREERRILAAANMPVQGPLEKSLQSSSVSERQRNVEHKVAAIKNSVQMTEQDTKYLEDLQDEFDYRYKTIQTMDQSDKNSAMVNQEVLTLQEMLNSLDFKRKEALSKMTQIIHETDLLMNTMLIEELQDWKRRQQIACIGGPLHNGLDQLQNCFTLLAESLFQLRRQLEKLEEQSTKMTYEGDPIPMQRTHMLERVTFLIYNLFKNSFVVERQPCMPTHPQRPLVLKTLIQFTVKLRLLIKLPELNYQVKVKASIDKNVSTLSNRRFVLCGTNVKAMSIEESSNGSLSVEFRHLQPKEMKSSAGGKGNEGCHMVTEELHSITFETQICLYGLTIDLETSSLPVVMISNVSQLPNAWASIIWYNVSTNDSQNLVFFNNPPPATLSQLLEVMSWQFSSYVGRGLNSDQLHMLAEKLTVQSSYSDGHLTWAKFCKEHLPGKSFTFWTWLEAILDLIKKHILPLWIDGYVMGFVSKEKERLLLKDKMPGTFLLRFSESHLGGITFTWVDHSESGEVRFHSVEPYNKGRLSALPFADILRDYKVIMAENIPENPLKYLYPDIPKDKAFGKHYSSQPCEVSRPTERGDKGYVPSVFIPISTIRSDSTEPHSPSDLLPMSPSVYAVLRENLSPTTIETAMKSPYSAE
Description: Fluorescence polarization assays: Competitive binding assays based on fluorescence polarization were carried out essentially as previously described.[[4a]] Unless stated otherwise, final concentrations of the buffer components were: 10 mM Tris (pH 8.0), 50 mM NaCl, 1 mM EDTA, 1 mM DTT, 0.1 % (v/v) Nonidet P‐40 substitute, and 2 % DMSO. Proteins were used at concentrations which reflect the Kd values of the interactions between the fluoropeptide and the protein preparations. Protein concentrations used for activity analysis of compound 5 were 91 nM for STAT1, 107 nM for STAT3, 28 nM for STAT4, 122 nM for STAT5a, 56 nM for STAT5b and 101 nM for STAT6. Protein concentrations used for activity analysis of AC‐4‐130 were 103 nM for STAT5a and 62 nM for STAT5b. […] Final concentration of all fluorescent‐labelled peptides was 10 nM. The following peptides were used in assays: 5‐carboxyfluorescein‐GpYDKPHVL for STAT1; 5‐carboxyfluorescein‐GpYLPQTV‐NH2 for STAT3; 5‐carboxyfluorescein‐GpYLPQNID for STAT4; 5‐carboxyfluorescein‐GpYLVLDKW for STAT5a/5b, and 5‐carboxyfluorescein‐GpYVPWQDLI for STAT6. Protein and test compounds were incubated for 1 h prior to addition of the fluorescein‐labeled peptide. Fluorescence polarization was measured after another 60 min using an Infinite F500 plate reader (Tecan). IC50 values were converted to Ki‐values using the published equation.[13]

[2] = Solubility as observed during synthesis / stock preparation; type: physicochemical; settings: DMSO stock solution

solubility in the DMSO stock solution [2]	SMILES	IC50 [1] [µM]	Ki [1] [µM]
	O=C(CNc1ccc(C(=O)Nc2ccc(Oc3ccccc3)cc2)cc1)NCc1cc(OP(=O)(O)O)cc(OP(=O)(O)O)c1 [compound 5]	11.3 ± 2.7	5.3 ± 1.3
limited solubility	O=C(CNc1ccc(C(=O)Nc2ccc(Oc3ccccc3)cc2)cc1)NCc1cc(C(F)(F)P(=O)(O)O)c(F)c(C(F)(F)P(=O)(O)O)c1 [compound 10]	11.2 ± 1.2	5.3 ± 0.6
